Test [1] deals with T1, Oxysterols receptor LXR-beta (Homo sapiens, UniProt P55055).
T1 sequence (P55055 whole entry): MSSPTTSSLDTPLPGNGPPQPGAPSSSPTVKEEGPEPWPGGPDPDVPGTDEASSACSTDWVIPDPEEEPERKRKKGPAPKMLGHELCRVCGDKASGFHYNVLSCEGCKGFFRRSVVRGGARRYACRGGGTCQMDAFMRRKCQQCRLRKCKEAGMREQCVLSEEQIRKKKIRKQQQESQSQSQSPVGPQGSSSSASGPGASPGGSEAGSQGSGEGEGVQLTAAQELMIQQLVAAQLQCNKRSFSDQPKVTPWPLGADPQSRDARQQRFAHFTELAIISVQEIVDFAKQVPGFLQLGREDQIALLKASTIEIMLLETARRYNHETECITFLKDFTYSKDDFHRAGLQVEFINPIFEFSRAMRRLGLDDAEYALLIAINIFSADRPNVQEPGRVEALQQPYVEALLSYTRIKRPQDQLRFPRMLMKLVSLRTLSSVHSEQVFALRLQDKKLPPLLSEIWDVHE
Format: functional.

The target in test [2] is T2, Bile acid receptor (Homo sapiens, UniProt Q96RI1).
T2 sequence (Q96RI1 whole entry): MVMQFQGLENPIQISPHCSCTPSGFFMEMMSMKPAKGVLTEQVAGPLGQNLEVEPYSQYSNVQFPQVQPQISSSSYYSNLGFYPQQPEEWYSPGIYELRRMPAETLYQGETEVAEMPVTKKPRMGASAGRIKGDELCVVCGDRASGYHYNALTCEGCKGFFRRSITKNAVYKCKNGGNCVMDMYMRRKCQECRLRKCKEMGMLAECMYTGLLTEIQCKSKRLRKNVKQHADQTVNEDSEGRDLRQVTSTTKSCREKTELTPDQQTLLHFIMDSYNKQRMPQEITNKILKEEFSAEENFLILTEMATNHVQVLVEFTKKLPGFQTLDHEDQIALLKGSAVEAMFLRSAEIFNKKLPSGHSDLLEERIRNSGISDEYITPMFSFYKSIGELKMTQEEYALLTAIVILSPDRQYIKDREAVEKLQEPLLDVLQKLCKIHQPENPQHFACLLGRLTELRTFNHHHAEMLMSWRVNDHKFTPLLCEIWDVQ
Format: functional.

Test [3] addresses T2, Bile acid receptor. Format: functional. The source holds these as a separate data set.
Test [4] addresses T3, Retinoic acid receptor alpha (Homo sapiens, UniProt P10276).
T3 sequence (P10276 whole entry): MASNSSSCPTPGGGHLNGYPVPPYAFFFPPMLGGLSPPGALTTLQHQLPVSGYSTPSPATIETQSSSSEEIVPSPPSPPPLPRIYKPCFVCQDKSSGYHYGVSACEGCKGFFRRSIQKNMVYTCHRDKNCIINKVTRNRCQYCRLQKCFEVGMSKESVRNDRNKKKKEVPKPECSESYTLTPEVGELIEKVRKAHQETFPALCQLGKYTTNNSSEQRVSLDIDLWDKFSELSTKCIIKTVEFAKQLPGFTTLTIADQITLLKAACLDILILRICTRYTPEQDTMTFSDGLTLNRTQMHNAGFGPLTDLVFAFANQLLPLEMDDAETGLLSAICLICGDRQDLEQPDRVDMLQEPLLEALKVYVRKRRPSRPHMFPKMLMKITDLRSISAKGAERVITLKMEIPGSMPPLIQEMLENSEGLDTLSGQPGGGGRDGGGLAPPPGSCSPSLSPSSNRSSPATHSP
Format: functional, cell-based.

Test [5] has as its target T4, Retinoic acid receptor beta (Homo sapiens, UniProt P10826).
T4 sequence (P10826 whole entry): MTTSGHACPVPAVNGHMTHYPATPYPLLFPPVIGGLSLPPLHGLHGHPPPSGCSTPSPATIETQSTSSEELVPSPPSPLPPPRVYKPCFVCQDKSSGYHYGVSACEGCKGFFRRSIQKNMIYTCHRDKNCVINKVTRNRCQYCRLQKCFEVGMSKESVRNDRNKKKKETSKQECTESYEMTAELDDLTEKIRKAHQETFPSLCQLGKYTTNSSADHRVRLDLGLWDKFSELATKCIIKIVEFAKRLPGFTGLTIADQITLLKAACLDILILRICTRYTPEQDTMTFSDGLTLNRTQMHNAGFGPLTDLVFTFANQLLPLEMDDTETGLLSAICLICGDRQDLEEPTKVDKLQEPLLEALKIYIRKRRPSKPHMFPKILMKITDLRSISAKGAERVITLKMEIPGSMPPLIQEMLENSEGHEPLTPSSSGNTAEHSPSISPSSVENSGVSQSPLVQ
Format: functional, cell-based.

Test [6] concerns the target T5, Retinoic acid receptor gamma (Homo sapiens, UniProt P13631).
T5 sequence (P13631 whole entry): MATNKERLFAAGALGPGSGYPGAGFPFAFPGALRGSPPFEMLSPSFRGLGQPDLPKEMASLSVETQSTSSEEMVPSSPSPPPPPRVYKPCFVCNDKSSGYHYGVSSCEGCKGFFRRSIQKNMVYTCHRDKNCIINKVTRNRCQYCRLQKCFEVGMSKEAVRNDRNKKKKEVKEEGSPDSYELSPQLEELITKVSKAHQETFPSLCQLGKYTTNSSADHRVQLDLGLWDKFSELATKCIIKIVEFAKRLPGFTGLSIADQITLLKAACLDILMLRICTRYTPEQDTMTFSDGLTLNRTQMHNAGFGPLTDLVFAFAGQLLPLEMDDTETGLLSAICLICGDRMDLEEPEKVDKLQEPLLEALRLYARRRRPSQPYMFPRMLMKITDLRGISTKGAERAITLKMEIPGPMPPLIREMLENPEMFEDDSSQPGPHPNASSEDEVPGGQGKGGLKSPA
Format: functional, cell-based.

Test [7] addresses T5, Retinoic acid receptor gamma. Format: functional, cell-based. This is another data set of the same source.
Further: assay procedure not described here.

A word on the AC50: it is the concentration giving half of the maximal activity seen. Read a low AC50 as greater potency. As to `COc1ccc2c(c1)C(=O)N(CCc1ccc(S(=O)(=O)NC(=O)NC3CCCCC3)cc1)C(=O)C2(C)C` [GLIQUIDONE], the AC50 in test [1] was 2.7 µM; in test [2] it was over 10 µM; in test [3], over 10 µM; in test [4], over 30 µM; in test [5] it was over 30 µM; in test [6], over 30 µM. The molecule further came in with an AC50 in test [7] of 2.6 µM.

The record behind these values is ChEMBL document CHEMBL5291721, “A preclinical secondary pharmacology resource illuminates target-adverse drug reaction associations of marketed drugs” (Nat Commun, 2023).
